Data from patent US8471005B2 (Cephalon, Inc., priority 2008, dated 2013).
pIC50: −log10 of the molar value. Where two headings read alike, the source gives them in different places.

Legend:
ALK = biological target: T1, ALK (Homo sapiens, UniProt Q9UM73); test: ALK Kinase Assay (ELISA/TRF, PLC-γ substrate); format: biochemical; conditions: read-out: ALK Potency
T1 construct: host or cells: baculovirus expression system
Summary of the method: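 Wells were coated with 10 μg/mL phospholipase C-γ substrate in TBS, and the reaction was started by adding 30 ng/ml ALK enzyme and run at 37° C for 15 minutes. Phosphorylated product was detected with Eu-N1-labeled PT66 antibody, and IC50 values came from sigmoidal variable-slope fits of percent inhibition against log concentration.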

JAK2 = biological target: T2, JAK2 (Homo sapiens, UniProt O60674); test: Recombinant Human JAK2 Kinase Assay (TRF); format: biochemical; conditions: read-out: JAK2 Potency
T2 construct: host or cells: baculovirus expression system
T2 sequence (O60674 whole entry): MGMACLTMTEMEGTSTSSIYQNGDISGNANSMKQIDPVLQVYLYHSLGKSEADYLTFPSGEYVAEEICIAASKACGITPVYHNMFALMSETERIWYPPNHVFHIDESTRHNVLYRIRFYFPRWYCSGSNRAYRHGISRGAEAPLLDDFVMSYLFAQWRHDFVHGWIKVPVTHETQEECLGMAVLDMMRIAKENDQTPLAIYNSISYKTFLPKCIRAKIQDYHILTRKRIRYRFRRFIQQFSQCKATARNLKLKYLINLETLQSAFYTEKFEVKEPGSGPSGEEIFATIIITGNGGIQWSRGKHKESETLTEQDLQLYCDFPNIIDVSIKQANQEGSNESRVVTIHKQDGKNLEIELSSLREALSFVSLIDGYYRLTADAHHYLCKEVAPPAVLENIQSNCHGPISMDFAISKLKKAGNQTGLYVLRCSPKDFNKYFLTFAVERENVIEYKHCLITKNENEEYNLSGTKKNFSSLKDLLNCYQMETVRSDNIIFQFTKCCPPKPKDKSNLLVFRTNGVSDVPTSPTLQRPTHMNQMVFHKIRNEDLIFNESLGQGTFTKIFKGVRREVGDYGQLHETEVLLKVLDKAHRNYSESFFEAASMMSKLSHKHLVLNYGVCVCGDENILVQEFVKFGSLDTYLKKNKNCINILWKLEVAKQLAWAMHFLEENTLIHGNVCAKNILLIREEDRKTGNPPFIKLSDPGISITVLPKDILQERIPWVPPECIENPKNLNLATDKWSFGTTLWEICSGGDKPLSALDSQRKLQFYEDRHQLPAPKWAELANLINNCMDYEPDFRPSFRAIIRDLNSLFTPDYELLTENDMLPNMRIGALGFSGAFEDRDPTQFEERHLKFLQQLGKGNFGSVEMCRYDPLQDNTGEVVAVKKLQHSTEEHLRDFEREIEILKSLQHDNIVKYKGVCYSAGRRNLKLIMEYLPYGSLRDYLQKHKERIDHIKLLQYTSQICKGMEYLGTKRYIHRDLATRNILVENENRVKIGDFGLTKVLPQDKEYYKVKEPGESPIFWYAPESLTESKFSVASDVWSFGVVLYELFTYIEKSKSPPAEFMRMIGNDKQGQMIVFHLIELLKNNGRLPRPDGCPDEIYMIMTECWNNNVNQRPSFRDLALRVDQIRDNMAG
Summary of the method: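 Kinase activity of baculovirus-expressed JAK2 is followed on a surface-immobilised biotinylated peptide, with the reaction run for 20 min at room temperature in buffer containing 0.2 μM ATP and manganese. Phosphorylation is read with Eu-N1 PY100 antibody.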

[1] = ALK kinase inhibition, 1 μM ATP
[2] = JAK2 kinase inhibition, 0.2 μM ATP

T1 sequence (Q9UM73 19-1620): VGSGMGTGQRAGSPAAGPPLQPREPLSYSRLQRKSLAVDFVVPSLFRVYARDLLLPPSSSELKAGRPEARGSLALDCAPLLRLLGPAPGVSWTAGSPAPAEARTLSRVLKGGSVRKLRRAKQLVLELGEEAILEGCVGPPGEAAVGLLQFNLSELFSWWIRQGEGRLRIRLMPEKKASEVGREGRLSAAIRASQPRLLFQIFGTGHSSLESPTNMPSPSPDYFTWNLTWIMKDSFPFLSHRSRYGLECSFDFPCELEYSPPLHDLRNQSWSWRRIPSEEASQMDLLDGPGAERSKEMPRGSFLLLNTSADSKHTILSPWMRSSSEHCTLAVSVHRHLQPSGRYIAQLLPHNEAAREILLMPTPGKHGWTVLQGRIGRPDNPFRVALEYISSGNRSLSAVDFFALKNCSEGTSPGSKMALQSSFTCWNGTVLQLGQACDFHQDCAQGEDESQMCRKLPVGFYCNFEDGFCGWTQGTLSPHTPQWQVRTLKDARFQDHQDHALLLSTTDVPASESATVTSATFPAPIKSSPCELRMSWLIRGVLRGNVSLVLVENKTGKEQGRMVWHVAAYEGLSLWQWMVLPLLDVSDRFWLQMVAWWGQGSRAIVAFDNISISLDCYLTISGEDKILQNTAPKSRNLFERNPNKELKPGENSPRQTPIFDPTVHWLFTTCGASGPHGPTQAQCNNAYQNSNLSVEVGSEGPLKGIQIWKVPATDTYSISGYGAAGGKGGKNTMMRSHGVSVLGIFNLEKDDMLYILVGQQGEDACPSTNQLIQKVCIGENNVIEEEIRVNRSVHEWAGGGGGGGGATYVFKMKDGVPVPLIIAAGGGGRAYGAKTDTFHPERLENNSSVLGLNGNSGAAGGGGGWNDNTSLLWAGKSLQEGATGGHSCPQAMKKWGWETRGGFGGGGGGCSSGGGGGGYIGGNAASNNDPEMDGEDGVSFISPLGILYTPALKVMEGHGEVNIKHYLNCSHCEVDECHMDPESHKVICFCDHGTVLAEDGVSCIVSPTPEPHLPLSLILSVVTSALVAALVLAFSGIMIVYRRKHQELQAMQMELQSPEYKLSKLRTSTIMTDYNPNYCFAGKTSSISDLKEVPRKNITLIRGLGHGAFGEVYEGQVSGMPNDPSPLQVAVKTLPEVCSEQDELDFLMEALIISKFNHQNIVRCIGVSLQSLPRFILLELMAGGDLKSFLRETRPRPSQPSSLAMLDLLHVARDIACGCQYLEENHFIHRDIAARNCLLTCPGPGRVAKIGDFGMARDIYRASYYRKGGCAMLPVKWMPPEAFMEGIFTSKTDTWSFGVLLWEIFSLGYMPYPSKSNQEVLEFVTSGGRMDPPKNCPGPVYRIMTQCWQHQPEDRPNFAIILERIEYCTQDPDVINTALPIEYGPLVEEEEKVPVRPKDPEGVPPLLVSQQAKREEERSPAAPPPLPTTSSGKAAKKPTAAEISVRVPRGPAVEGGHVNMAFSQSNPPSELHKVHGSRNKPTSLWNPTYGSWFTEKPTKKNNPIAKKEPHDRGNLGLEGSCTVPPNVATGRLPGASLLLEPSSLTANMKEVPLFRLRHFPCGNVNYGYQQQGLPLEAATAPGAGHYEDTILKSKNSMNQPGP

Molecule | pIC50 (ALK; ALK Kinase Inhibition) | pIC50 (JAK2; JAK2 Kinase Inhibition) | pIC50 (ALK; [1]) | pIC50 (JAK2; [2])
CC(=O)Nc1cc(Nc2ncc3ccc(-c4cnn(C)c4)n3n2)ccc1C(C)(C)C [Example 1380, N-{2-tert-Butyl-5-[7-(1-methyl-1H-pyrazol-4-yl)-pyrrolo[2,1-f][1,2,4]triazin-2-ylamino]-phenyl}-acetamide] | 5.00 to 6.00 | > 7.00 | – | –
COc1cc(C2(O)CCN(C(=O)OC(C)(C)C)CC2)ccc1Nc1ncc2ccc(-c3ccccc3N(C)S(C)(=O)=O)n2n1 [Example 741, 4-Hydroxy-4-(4-{7-[2-(methanesulfonyl-methyl-amino)-phenyl]-pyrrolo[2,1-f][1,2,4]triazin-2-ylamino}-3-methoxy-phenyl)-piperidine-1-carboxylic acid tert-butyl ester] | – | – | 6.00 to 7.00 | 6.00 to 7.00
COCc1ccccc1-c1ccc2cnc(Nc3ccc(N4CCC(N5CCN(C)CC5)CC4)cc3OC)nn12 [Example 538, [7-(2-Methoxymethyl-phenyl)-pyrrolo[2,1-f][1,2,4]triazin-2-yl]-{2-methoxy-4-[4-(4-methyl-piperazin-1-yl)-piperidin-1-yl]-phenyl}-amine] | – | – | > 7.00 | > 7.00
COc1ccccc1-c1cc(O)c2cnc(Nc3ccc(C4CCN(CC(N)=O)CC4)cc3)nn12 [Example 1260, 2-(4-{4-[5-Hydroxy-7-(2-methoxy-phenyl)-pyrrolo[2,1-f][1,2,4]triazin-2-ylamino]-phenyl}-piperidin-1-yl)-acetamide] | – | – | 6.00 to 7.00 | > 7.00
N-{2-[2-(4-{4-[1-(2-Hydroxy-ethyl)-piperidin-4-yl]-[1,4]diazepan-1-yl}-2-methoxy-phenylamino)-pyrrolo[2,1-f][1,2,4]triazin-7-yl]-phenyl}-N-methyl-methanesulfonamide [Example 802] | – | – | > 7.00 | 5.00 to 6.00
COc1ccccc1-c1ccc2cnc(C#N)nn12 [Example 1494, 7-(2-Methoxy-phenyl)-pyrrolo[2,1-f][1,2,4]triazine-2-carbonitrile] | < 5.00 | < 5.00 | – | –
COc1ccc(OC)c(-c2ccc3cnc(Nc4ccc(N5CCC(N6CCOCC6)CC5)cc4OC)nn23)c1 [Example 1476, [7-(2,5-Dimethoxy-phenyl)-pyrrolo[2,1-f][1,2,4]triazin-2-yl]-[2-methoxy-4-(4-morpholin-4-yl-piperidin-1-yl)-phenyl]-amine] | > 7.00 | 6.00 to 7.00 | – | –
COc1ccccc1-c1ccc2cnc(Nc3ccc4oc(C)nc4c3)nn12 [Example 564, [7-(2-Methoxy-phenyl)-pyrrolo[2,1-f][1,2,4]triazin-2-yl]-(2-methyl-benzoxazol-5-yl)-amine] | – | – | 6.00 to 7.00 | > 7.00
COc1cc(C2CCN(Cc3ncc[nH]3)CC2)ccc1Nc1ncc2ccc(-c3ccccc3OC)n2n1 [Example 868, {4-[1-(1H-Imidazol-2-ylmethyl)-piperidin-4-yl]-2-methoxy-phenyl}-[7-(2-methoxy-phenyl)-pyrrolo[2,1-f][1,2,4]triazin-2-yl]-amine] | – | – | > 7.00 | 6.00 to 7.00
CC(C)C(=O)Nc1cccc(Nc2ncc3ccc(-c4cnn(C)c4)n3n2)c1 [Example 963, N-{3-[7-(1-Methyl-1H-pyrazol-4-yl)-pyrrolo[2,1-f][1,2,4]triazin-2-ylamino]-phenyl}-isobutyramide] | – | – | 5.00 to 6.00 | > 7.00
COc1ccc(-c2ccc3cnc(Nc4ccn(CC(=O)N5CCN(C)CC5)n4)nn23)cn1 [Example 1115, 2-{3-[7-(6-Methoxy-pyridin-3-yl)-pyrrolo[2,1-f][1,2,4]triazin-2-ylamino]-pyrazol-1-yl}-1-(4-methyl-piperazin-1-yl)-ethanone] | – | – | 5.00 to 6.00 | > 7.00
CCCS(=O)(=O)Nc1cccc(-c2ccc3cnc(Nc4ccc(N5CCN(C)CC5)cc4)nn23)c1 [Example 417, Propane-1-sulfonic acid (3-{2-[4-(4-methyl-piperazin-1-yl)-phenylamino]-pyrrolo[2,1-f][1,2,4]triazin-7-yl}-phenyl)-amide] | > 7.00 | > 7.00 | – | –
COc1ccccc1-c1ccc2cnc(Nc3ccc(-c4cccnc4)cc3)nn12 [Example 1091, [7-(2-Methoxy-phenyl)-pyrrolo[2,1-f][1,2,4]triazin-2-yl]-(4-pyridin-3-yl-phenyl)-amine] | – | – | 5.00 to 6.00 | > 7.00
CN1CCN(C)C(c2ccc(Nc3ncc4ccc(-c5cccc(S(=O)(=O)NC(C)(C)C)c5)n4n3)cc2)C1=O (stereo not shown) [Example 1074, N-tert-Butyl-3-{2-[4-(1,4-dimethyl-3-oxo-piperazin-2-yl)-phenylamino]-pyrrolo[2,1-f][1,2,4]triazin-7-yl}-benzene sulfonamide] | – | – | 5.00 to 6.00 | > 7.00
COc1ccc(-c2ccc3cnc(Nc4ccc(OCCN5CCOCC5)cc4)nn23)cn1 [Example 1103, [7-(6-Methoxy-pyridin-3-yl)-pyrrolo[2,1-f][1,2,4]triazin-2-yl]-[4-(2-morpholin-4-yl-ethoxy)-phenyl]-amine] | – | – | 6.00 to 7.00 | > 7.00
COc1cc2c(cc1Nc1ncc3ccc(-c4ccccc4OC)n3n1)CN(C(=O)CN)C2 [Example 878, 2-Amino-1-{5-methoxy-6-[7-(2-methoxy-phenyl)-pyrrolo[2,1-f][1,2,4]triazin-2-ylamino]-1,3-dihydro-isoindol-2-yl}-ethanone] | – | – | > 7.00 | > 7.00
CS(=O)(=O)c1cccc(-c2ccc3cnc(Nc4ccc(C5CCNCC5)nc4)nn23)c1 [Example 1025, (1′,2′,3′,4′,5′,6′-Hexahydro-[2,4′]bipyridinyl-5-yl)-[7-(3-methanesulfonyl-phenyl)-pyrrolo[2,1-f][1,2,4]triazin-2-yl]-amine] | – | – | 6.00 to 7.00 | > 7.00
COc1ccc(C(=O)N2CCN(C)CC2)cc1Nc1ncc2ccc(-c3ccccc3OC)n2n1 [Example 494, {4-Methoxy-3-[7-(2-methoxy-phenyl)-pyrrolo[2,1-f][1,2,4]triazin-2-ylamino]-phenyl}-(4-methyl-piperazin-1-yl)-methanone] | – | – | 5.00 to 6.00 | < 5.00
CN1CCN(c2cccc(Nc3ncc4ccc(-c5cccc(CO)c5)n4n3)c2)CC1 [Example 1557, (3-{2-[3-(4-Methyl-piperazin-1-yl)-phenylamino]-pyrrolo[2,1-f][1,2,4]triazin-7-yl}-phenyl)-methanol] | > 7.00 | > 7.00 | – | –
CCN(CC)C1CCN(c2ccc(Nc3ncc4ccc(-c5ccccc5N(C)S(C)(=O)=O)n4n3)cc2)CC1 [Example 1204, N-(2-{2-[4-(4-Diethylamino-piperidin-1-yl)-phenylamino]-pyrrolo[2,1-f][1,2,4]triazin-7-yl}-phenyl)-N-methyl-methanesulfonamide] | – | – | > 7.00 | > 7.00
COc1ccccc1-c1ccc2cnc(Nc3ccc(=O)[nH]c3)nn12 [Example 591, 5-[7-(2-Methoxy-phenyl)-pyrrolo[2,1-f][1,2,4]triazin-2-ylamino]-1H-pyridin-2-one] | – | – | 5.00 to 6.00 | > 7.00
CN1CCN(c2ccc(Nc3ncc4c(Br)cc(-c5ccc(S(C)(=O)=O)cc5)n4n3)cc2)CC1 [Example 91, [5-Bromo-7-(4-methanesulfonyl-phenyl)-pyrrolo[2,1-f][1,2,4]triazin-2-yl]-[4-(4-methyl-piperazin-1-yl)-phenyl]-amine] | 6.00 to 7.00 | > 7.00 | – | –
CC(C)(C)NS(=O)(=O)c1cccc(-c2ccc3cnc(Nc4ccc5nc[nH]c5c4)nn23)c1 [Example 1299, 3-[2-(3H-Benzimidazol-5-ylamino)-pyrrolo[2,1-f][1,2,4]triazin-7-yl]-N-tert-butyl-benzenesulfonamide] | – | – | 6.00 to 7.00 | > 7.00
N-{2-[2-(5,5-Dimethyl-2-oxo-2,3,4,5-tetrahydro-1H-benzo[b]azepin-7-ylamino)pyrrolo[2,1-f][1,2,4]triazin-7-yl}-phenyl]methanesulfonamide [Example 624] | – | – | > 7.00 | > 7.00
CC(C)(C)NS(=O)(=O)c1cccc(-c2ccc3cnc(Nc4ccc5cn(CCN6CCOCC6)nc5c4)nn23)c1 [Example 1344, N-tert-Butyl-3-{2-[2-(2-morpholin-4-yl-ethyl)-2H-indazol-6-ylamino]-pyrrolo[2,1-f][1,2,4]triazin-7-yl}-benzenesulfonamide] | – | – | 6.00 to 7.00 | > 7.00
CN1CCN(c2ccc(Nc3ncc4ccc(-c5cccc(NS(=O)(=O)C6CC6)c5)n4n3)cc2)CC1 [Example 413, Cyclopropanesulfonic acid (3-{2-[4-(4-methyl-piperazin-1-yl)-phenylamino]-pyrrolo[2,1-f][1,2,4]triazin-7-yl}-phenyl)-amide] | 6.00 to 7.00 | > 7.00 | – | –
COc1ccc(C(=O)N2CCN(C)CC2)cc1Nc1ncc2ccc(-c3ccccc3N(C)S(C)(=O)=O)n2n1 [Example 496, N-(2-{2-[2-Methoxy-5-(4-methyl-piperazine-1-carbonyl)-phenylamino]-pyrrolo[2,1-f][1,2,4]triazin-7-yl}-phenyl)-N-methyl-methanesulfonamide] | – | – | 5.00 to 6.00 | < 5.00
COCCOc1ccccc1-c1ccc2cnc(Nc3ccc(C4CCN(CC(N)=O)CC4)cc3OC)nn12 [Example 1271, 2-[4-(3-Methoxy-4-{7-[2-(2-methoxy-ethoxy)-phenyl]-pyrrolo[2,1-f][1,2,4]triazin-2-ylamino}-phenyl)-piperidin-1-yl]-acetamide] | – | – | 6.00 to 7.00 | 5.00 to 6.00
Clc1cccc(-c2ccc3cnc(-n4cnc5cnccc54)nn23)c1 [Example 324, 1-[7-(3-Chloro-phenyl)-pyrrolo[2,1-f][1,2,4]triazin-2-yl]-1H-imidazo[4,5-c]pyridine] | 5.00 to 6.00 | 5.00 to 6.00 | – | –
